≈ marks a conversion by molar mass, not a printed value. Read-outs that look alike come from different tables or passages of the source. Where a SMILES comes first, the peptide text is derived from it.
Experiments:
[1] = test system: S. aureus; experiment: microbe, parasite or virus in culture; details: Staphylococcus aureus
[2] = test system: P. acnes; experiment: MIC test by microdilution assay against P. acnes; assay type: cell-based, Propionibacterium acnes
[3] = test system: human keratinocytes (HK cells)
[4] = test system: P. aeruginosa derived from patient specimens
[5] = test system: P. acnes; experiment: P. acnes-induced inflammatory response in ICR mouse ears; assay type: in vivo; details: ICR mice
Method: Right ears of ICR mice (Harlan, Indianapolis, Ind.) were intradermally injected with P. acnes (1×10^8 CFU per 20 μl in Phosphate-Buffered Saline (PBS)) with or without HPA3NT3 peptide (6.4 μM). Left ears of the same mice were injected with 20 μl of PBS. In negative control ICR mice, right ears remained untreated while left ears received intradermal injections of PBS. For histological observation, the cross-sectioned ear was stained with hematoxylin and eosin (Sigma) and viewed on a Zeiss Axioskop2 plus microscope (Carl Zeiss) 24 to 48 hours after injection. The increase in ear thickness was measured using a micro caliper (Mitutoyo 547-400S; MSI Viking Gage, Charleston, S.C.) prior to, and at 24, 48, and 72 hours post injection. The percent difference in ear thickness (right vs. left ear) was determined by an induced ear inflammation ratio (percent difference in the experimental ear divided by the percent difference in the control ears). Ten milligrams of tissue from an 8 mm biopsy that was punched from ears at 24 hours after P. acnes injection was homogenized in 250 μl of sterile PBS with a tissue grinder. CFUs of P. acnes were determined by plating serial dilutions of the homogenate on an agar plate under anaerobic conditions for 48 hours.

[6] = in vitro; details: human, HK cells (human keratinocytes)
[7] = test system: P. aeruginosa (ATCC19660)
[8] = test system: P. aeruginosa derived from patient specimens; experiment: microbe, parasite or virus in culture; details: Pseudomonas aeruginosa, read-out: MIC against P. aeruginosa
[9] = test system: P. acnes; details: background, literature; cited from earlier work
[10] = test system: M. furfur; experiment: MIC microdilution assay against M. furfur
[11] = test system: IL-8; experiment: IL-8 mRNA in P. aeruginosa-infected human corneal epithelial cells; assay type: cell-based; details: HCET cells
Method: Human corneal epithelial cells (HCET cells) were exposed to 2×10^4 CFU/mL tympanitis-derived P. aeruginosa either in the presence or absence of antimicrobial peptides. Specifically, HP(2-20) and its derivatives HPA3NT3, ISFGW, and F1AF8A were added to samples at concentration of 3.2 μM. Moreover, a cathilocidin-derived peptide (P5) was also added to some conditions at a concentration of 1.6 μM.

[12] = Cutibacterium acnes, strain ATCC6919, read-out: MIC against P. acnes
[13] = Cutibacterium acnes, strain ATCC11828, read-out: MIC against P. acnes
[14] = clinical isolate Patient #1 (tympanitis)
[15] = clinical isolate Patient #2 (tympanitis)

Compound `CCC[C@@H]1C[C@@H](C(=O)N[C@@H]([C@H]2O[C@H](SC)[C@H](O)[C@@H](O)[C@H]2O)[C@H](C)Cl)N(C)C1` [Clindamycin, clindamycin] has an MIC ([1]; ATCC8096, read-out: MIC against S. aureus) of over 50 µM, an MIC ([1]; ATCC25923, read-out: MIC against S. aureus) of over 50 µM and an MIC ([1]; ATCC29213, read-out: MIC against S. aureus) of over 50 µM. For the same compound, the MIC [2, 12] was under 0.2 µM and the MIC [2, 13] was under 0.2 µM.
In the case of `CC[C@H](C)[C@H](NC(=O)[C@H](CCCCN)NC(=O)[C@H](CCCCN)NC(=O)[C@H](Cc1ccccc1)NC(=O)[C@H](CC(C)C)NC(=O)[C@H](CCCCN)NC(=O)[C@H](CCCCN)NC(=O)[C@H](CC(C)C)NC(=O)[C@H](CCCNC(=N)N)NC(=O)[C@H](CCCCN)NC(=O)[C@@H](N)Cc1ccccc1)C(=O)N[C@@H](Cc1c[nH]c2ccccc12)C(=O)N[C@@H](CC(N)=O)C(=O)N[C@@H](Cc1c[nH]c2ccccc12)C(=O)N[C@@H](CCCCN)C(=O)O` [HPA3NT3] (H-FKRLKKLFKKIWNWK-OH), the Cell viability [3] is reported as 100%, the “cytotoxicity to HK cells” value [3] is reported as “only minimal cytotoxicity” and the “MIC against P. aeruginosa” value ([4]; derived from patient specimens) is reported as 16 µg/mL (≈ 7.75 µM). The “ear thickness or inflammation, peptide alone (histology)” value [5] was “did not affect ear thickness or inflammation”, the “erythema or ear swelling, peptide in uninfected ears” value [5] was “no significant changes” and the viability at 24 h, 1.6 µM [6] was 100%. It also gave a viability at 24 h, 3.2 µM [6] of 100% and a viability at 24 h, 6.4 µM [6] of 100%.
In the case of `CC[C@H](C)[C@H](NC(=O)CNC(=O)[C@@H](NC(=O)[C@H](CCCCN)NC(=O)[C@H](CCCCN)NC(=O)[C@H](Cc1ccccc1)NC(=O)[C@H](CC(C)C)NC(=O)[C@H](CCCCN)NC(=O)[C@H](Cc1c[nH]c2ccccc12)NC(=O)[C@@H](N)CCCCN)[C@@H](C)CC)C(=O)NCC(=O)N[C@@H](CCCCN)C(=O)N[C@@H](Cc1ccccc1)C(=O)N[C@@H](CC(C)C)C(=O)N[C@@H](Cc1c[nH]cn1)C(=O)N[C@@H](CO)C(=O)N[C@@H](C)C(=O)N[C@@H](CCCCN)C(=O)N[C@@H](CCCCN)C(=O)N[C@@H](Cc1ccccc1)C(N)=O` [CA-MA] (H-KWKLFKKIGIGKFLHSAKKF-NH2), the “MIC against P. aeruginosa (ATCC19660)” value [7] is reported as 1.562 µM (≈ 3.76 µg/mL).
With `CC[C@H](C)[C@H](NC(=O)CN)C(=O)NCC(=O)N[C@@H](C)C(=O)N[C@H](C(=O)N[C@@H](CC(C)C)C(=O)N[C@@H](CCCCN)C(=O)N[C@H](C(=O)N[C@@H](CC(C)C)C(=O)N[C@H](C(=O)N[C@H](C(=O)NCC(=O)N[C@@H](CC(C)C)C(=O)N1CCC[C@H]1C(=O)N[C@@H](C)C(=O)N[C@@H](CC(C)C)C(=O)N[C@H](C(=O)N[C@@H](CO)C(=O)N[C@@H](Cc1c[nH]c2ccccc12)C(=O)N[C@H](C(=O)N[C@@H](CCCCN)C(=O)N[C@@H](CCCNC(=N)N)C(=O)N[C@@H](CCCCN)C(=O)N[C@@H](CCCNC(=N)N)C(=O)N[C@@H](CCC(N)=O)C(=O)N[C@@H](CCC(N)=O)C(N)=O)[C@@H](C)CC)[C@@H](C)CC)[C@@H](C)O)[C@@H](C)O)C(C)C)C(C)C` [Melittin] the “MIC against P. aeruginosa” value [4, 14] was 8 µg/mL (≈ 2.81 µM) and the “MIC against P. aeruginosa” value [4, 15] was 16 µg/mL (≈ 5.62 µM).
With `CC(C)C[C@H](NC(=O)[C@H](CCCCN)NC(=O)[C@H](CCCCN)NC(=O)[C@H](CC(C)C)NC(=O)[C@H](CC(C)C)NC(=O)[C@H](CCCCN)NC(=O)[C@H](CCCCN)NC(=O)[C@H](CC(C)C)NC(=O)[C@H](CC(C)C)NC(=O)[C@@H]1CCCN1C(=O)[C@H](CCCCN)NC(=O)[C@H](CCCCN)NC(=O)[C@H](CC(C)C)NC(=O)[C@H](CC(C)C)NC(=O)[C@H](CCCCN)NC(=O)[C@H](CCCCN)NC(=O)[C@H](Cc1c[nH]c2ccccc12)NC(=O)[C@@H](N)CCCCN)C(N)=O` [p5] (H-KWKKLLKKPLLKKLLKKL-NH2; N-terminus and C-terminus assumed) the “MIC against P. aeruginosa (ATCC19660)” value [7] was 0.78 µM (≈ 1.75 µg/mL).
For `CC(C)(O/N=C(\C(=O)N[C@@H]1C(=O)N2C(C(=O)[O-])=C(C[n+]3ccccc3)CS[C@H]12)c1csc(N)n1)C(=O)O` [Ceftazidime, ceftazidime], the MIC [8] was over 32 µg/mL and the “MIC against P. aeruginosa” value [4, 15] was over 32 µg/mL.
For `O=C(OOC(=O)c1ccccc1)c1ccccc1` [Benzoyl Peroxide, benzoyl peroxide], the “minimal inhibitory concentration (MIC)” value [9] is listed as 150 µg/mL (≈ 619 µM), the MIC [2, 12] is listed as 125 µM (≈ 30.3 µg/mL) and the MIC [2, 13] is listed as 62.5 µM (≈ 15.1 µg/mL). For the same compound, the MIC ([2]; Cutibacterium acnes, text summary of Table 1A, strain not named, read-out: MIC value against P. acnes) was 62.5 µM (≈ 15.1 µg/mL).
With `CC[C@H](C)[C@H](NC(=O)[C@H](CCCCN)NC(=O)[C@H](CO)NC(=O)[C@H](Cc1ccccc1)NC(=O)[C@H](CC(C)C)NC(=O)[C@H](CCCCN)NC(=O)[C@H](CCC(=O)O)NC(=O)[C@H](CC(C)C)NC(=O)[C@H](CCCNC(=N)N)NC(=O)[C@H](CCCCN)NC(=O)[C@H](Cc1ccccc1)NC(=O)[C@@H](NC(=O)[C@H](CCCCN)NC(=O)[C@H](CCCCN)NC(=O)[C@H](C)N)C(C)C)C(=O)N[C@@H](CCC(N)=O)C(=O)N[C@@H](CC(N)=O)C(=O)N[C@@H](CC(=O)O)C(=O)N[C@@H](CCCCN)C(N)=O` [HP(2-20)] (H-AKKVFKRLEKLFSKIQNDK-NH2; N-terminus and C-terminus assumed) the “MIC against M. furfur” value [10] was under 0.195 µM, the “P. aeruginosa infection induced IL-8 expression (mRNA)” value ([11]; 3.2 μM, 24 hours) was “significantly inhibited” and the “expression of IL-8, peptide without P. aeruginosa” value ([11]; data not shown) was “did not impact the expression of IL-8”. The MIC ([2]; text summary of Table 1A, strain not named, read-out: MIC value against P. acnes) was 0.8 µM (≈ 1.86 µg/mL).
With `CN[C@H](CC(C)C)C(=O)N[C@H]1C(=O)N[C@@H](CC(N)=O)C(=O)N[C@H]2C(=O)N[C@H]3C(=O)N[C@H](C(=O)N[C@H](C(=O)O)c4cc(O)cc(O)c4-c4cc3ccc4O)[C@H](O)c3ccc(c(Cl)c3)Oc3cc2cc(c3O[C@@H]2O[C@H](CO)[C@@H](O)[C@H](O)[C@H]2O[C@H]2C[C@](C)(N)[C@H](O)[C@H](C)O2)Oc2ccc(cc2Cl)[C@H]1O` [Vancomycin, vancomycin] the MIC [8] was over 32 µg/mL and the “MIC against P. aeruginosa” value [4, 15] was over 32 µg/mL.
In the case of `CC[C@H](C)[C@H](NC(=O)[C@H](CCCCN)NC(=O)[C@H](CCC(=O)O)NC(=O)[C@H](CCCCN)NC(=O)[C@H](CO)NC(=O)[C@H](CCCCN)NC(=O)[C@H](CCCNC(=N)N)NC(=O)[C@H](Cc1ccccc1)NC(=O)[C@H](Cc1ccccc1)NC(=O)[C@H](CC(=O)O)NC(=O)CNC(=O)[C@H](CC(C)C)NC(=O)[C@@H](N)CC(C)C)C(=O)NCC(=O)N[C@@H](CCCCN)C(=O)N[C@@H](CCC(=O)O)C(=O)N[C@@H](Cc1ccccc1)C(=O)N[C@@H](CCCCN)C(=O)N[C@@H](CCCNC(=N)N)C(=O)N[C@H](C(=O)N[C@H](C(=O)N[C@@H](CCC(N)=O)C(=O)N[C@@H](CCCNC(=N)N)C(=O)N[C@H](C(=O)N[C@@H](CCCCN)C(=O)N[C@@H](CC(=O)O)C(=O)N[C@@H](Cc1ccccc1)C(=O)N[C@@H](CC(C)C)C(=O)N[C@@H](CCCNC(=N)N)C(=O)N[C@@H](CC(N)=O)C(=O)N[C@@H](CC(C)C)C(=O)N[C@H](C(=O)N1CCC[C@H]1C(=O)N[C@@H](CCCNC(=N)N)C(=O)N[C@H](C(=O)N[C@@H](CCC(=O)O)C(=O)N[C@@H](CO)C(=O)O)[C@@H](C)O)C(C)C)[C@@H](C)CC)C(C)C)[C@@H](C)CC` [LL37], the “MIC against P. aeruginosa” value [4, 14] is reported as over 32 µg/mL and the “MIC against P. aeruginosa” value [4, 15] is reported as over 32 µg/mL.

Reference: US9278121B2, “Methods of use for an antimicrobial peptide” (priority 2013, dated 2016)
